Experimental data taken from US9833455B2, “Preparation and methods of use for ortho-aryl 5-membered heteroaryl-carboxamide containing multi-targeted kinase inhibitors” (Spacefill Enterprises LLC, priority 2011, dated 2017).
Like-named read-outs stand apart in the source and are kept apart here. Each block holds one compound with its values, some of them ahead of it.

Key:
panel of kinases = test: Nanosyn kinase panel profiling (panels of 29, 220, 230, 250 kinases), whole panel; assay type: biochemical; conditions: for activity against any of the kinases tested: panel of 29 selected kinases
Procedure: “Inhibiting kinase activity” means to decrease the production of an phosphor-peptide by a particular kinase that can be separated by analytical techniques. […] Profiling data in this application were determined using these techniques at Nanosyn Inc. IC50 data were provided by Reaction Biology Inc using a P33 radiolabeled kinase assay.
These compounds were profiled against a panel of 230 kinases (Nanosyn Inc.).
A total of 15 new inhibitors were designed, prepared, and evaluated against a panel of 29 selected kinases in order to explore the applicability, SAR trends, and the tunability of this scaffold that could be imposed but this unique geometry, Table 21. Inhibitors I-1 to 1-12 all retained the 2-CF3-5-(4-F-phenyl) imidazole-4-carboxamide scaffold previously described (Deitrich, 2010), but explored different Hinge-Gatekeeper Motifs (HGM).
To further test the breadth of applicability and ability to achieve selectivity with inhibitors that share this scaffold geometry, I-11 and I-12 were evaluated against a larger panel of 220 high interest kinases, Table-23.

BRAF(V600E) [1] = molecular target: T1, BRAF(V600E) (Homo sapiens, UniProt P15056, V600E); test: LanthaScreen assay, side by side IC50 comparison; assay type: biochemical
Procedure: (§1) To test both our binding mode hypothesis and to see if these structural differences could be taken exploited to impart selectivity and potency improvements, I-13, in which the lipophilic 2-trifluoromethy substituent on imidazole ring of inhibitor KIN-035, was replaced by the polar 2-methylsulfonyl substitutent. […] To address this issue, real time kinetic experiments were performed.

wild type B-Raf = wild type B-Raf (Homo sapiens, UniProt P15056); test: LanthaScreen assay, IC50; assay type: biochemical
Procedure: as §1

BRAF(V600E) [2] = molecular target: T1, BRAF(V600E); test: Real time kinetic experiments; assay type: biochemical
Procedure: as §1

BRAF = molecular target: T2, BRAF (Homo sapiens, UniProt P15056); conditions: 1 μM, duplicate, without preincubation; cited from earlier work
T2 construct: literature Ambit Biosciences

BTK = molecular target: T3, BTK (Homo sapiens, UniProt Q06187); conditions: 1 μM, duplicate, without preincubation; cited from earlier work
T3 construct: literature Ambit Biosciences

CDK11 = molecular target: T4, CDK11 (Homo sapiens, UniProt Q9BWU1); conditions: 1 μM, duplicate, without preincubation; cited from earlier work
T4 construct: literature Ambit Biosciences

CDK7 = molecular target: T5, CDK7 (Homo sapiens, UniProt P50613); conditions: 1 μM, duplicate, without preincubation; cited from earlier work
T5 construct: literature Ambit Biosciences

CSF1R = molecular target: T6, CSF1R (Homo sapiens, UniProt P07333); conditions: 1 μM, duplicate, without preincubation; cited from earlier work
T6 construct: literature Ambit Biosciences

DCAMKL1 = molecular target: T7, DCAMKL1 (Homo sapiens, UniProt O15075); conditions: 1 μM, duplicate, without preincubation; cited from earlier work
T7 construct: literature Ambit Biosciences
T7 sequence (O15075 1-740): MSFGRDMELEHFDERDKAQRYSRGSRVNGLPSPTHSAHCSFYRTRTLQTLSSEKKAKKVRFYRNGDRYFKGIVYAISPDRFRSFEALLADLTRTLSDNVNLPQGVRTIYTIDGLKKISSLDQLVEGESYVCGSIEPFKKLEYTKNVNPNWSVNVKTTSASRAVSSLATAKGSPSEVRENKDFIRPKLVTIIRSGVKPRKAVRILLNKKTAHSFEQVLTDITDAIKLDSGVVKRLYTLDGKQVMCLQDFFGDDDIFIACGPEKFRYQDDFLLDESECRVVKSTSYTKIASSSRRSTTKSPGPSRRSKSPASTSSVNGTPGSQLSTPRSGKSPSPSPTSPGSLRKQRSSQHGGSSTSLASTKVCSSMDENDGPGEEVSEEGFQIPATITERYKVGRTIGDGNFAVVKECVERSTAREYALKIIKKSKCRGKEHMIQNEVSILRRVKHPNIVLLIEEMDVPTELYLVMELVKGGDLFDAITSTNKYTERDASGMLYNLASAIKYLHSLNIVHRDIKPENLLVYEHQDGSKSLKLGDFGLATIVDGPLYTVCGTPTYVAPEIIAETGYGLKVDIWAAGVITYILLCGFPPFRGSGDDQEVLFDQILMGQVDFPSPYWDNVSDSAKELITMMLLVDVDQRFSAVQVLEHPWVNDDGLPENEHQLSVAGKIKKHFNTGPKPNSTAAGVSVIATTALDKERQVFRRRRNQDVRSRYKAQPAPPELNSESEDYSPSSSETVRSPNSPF

IKK-beta = molecular target: T8, IKK-beta (Homo sapiens, UniProt O14920); conditions: 1 μM, duplicate, without preincubation; cited from earlier work
T8 construct: literature Ambit Biosciences

JAK2 (catalytic) = molecular target: T9, JAK2 (catalytic) (Homo sapiens, UniProt O60674); conditions: 1 μM, duplicate, without preincubation; cited from earlier work
T9 construct: catalytic; literature Ambit Biosciences

KIT = KIT (Homo sapiens, UniProt P10721); conditions: 1 μM, duplicate, without preincubation; cited from earlier work
p38-alpha = molecular target: T10, p38-alpha (Homo sapiens, UniProt Q16539); conditions: 1 μM, duplicate, without preincubation; cited from earlier work
T10 construct: literature Ambit Biosciences

p38-beta = molecular target: T11, p38-beta (Homo sapiens, UniProt Q15759); conditions: 1 μM, duplicate, without preincubation; cited from earlier work
T11 construct: literature Ambit Biosciences

PDGFRA = molecular target: T12, PDGFRA (Homo sapiens, UniProt P16234); conditions: 1 μM, duplicate, without preincubation; cited from earlier work
T12 construct: literature Ambit Biosciences

PDGFRB = molecular target: T13, PDGFRB (Homo sapiens, UniProt P09619); conditions: 1 μM, duplicate, without preincubation; cited from earlier work
T13 construct: literature Ambit Biosciences

PLK4 = molecular target: T14, PLK4 (Homo sapiens, UniProt O00444); conditions: 1 μM, duplicate, without preincubation; cited from earlier work
T14 construct: literature Ambit Biosciences
T14 sequence (O00444 1-970): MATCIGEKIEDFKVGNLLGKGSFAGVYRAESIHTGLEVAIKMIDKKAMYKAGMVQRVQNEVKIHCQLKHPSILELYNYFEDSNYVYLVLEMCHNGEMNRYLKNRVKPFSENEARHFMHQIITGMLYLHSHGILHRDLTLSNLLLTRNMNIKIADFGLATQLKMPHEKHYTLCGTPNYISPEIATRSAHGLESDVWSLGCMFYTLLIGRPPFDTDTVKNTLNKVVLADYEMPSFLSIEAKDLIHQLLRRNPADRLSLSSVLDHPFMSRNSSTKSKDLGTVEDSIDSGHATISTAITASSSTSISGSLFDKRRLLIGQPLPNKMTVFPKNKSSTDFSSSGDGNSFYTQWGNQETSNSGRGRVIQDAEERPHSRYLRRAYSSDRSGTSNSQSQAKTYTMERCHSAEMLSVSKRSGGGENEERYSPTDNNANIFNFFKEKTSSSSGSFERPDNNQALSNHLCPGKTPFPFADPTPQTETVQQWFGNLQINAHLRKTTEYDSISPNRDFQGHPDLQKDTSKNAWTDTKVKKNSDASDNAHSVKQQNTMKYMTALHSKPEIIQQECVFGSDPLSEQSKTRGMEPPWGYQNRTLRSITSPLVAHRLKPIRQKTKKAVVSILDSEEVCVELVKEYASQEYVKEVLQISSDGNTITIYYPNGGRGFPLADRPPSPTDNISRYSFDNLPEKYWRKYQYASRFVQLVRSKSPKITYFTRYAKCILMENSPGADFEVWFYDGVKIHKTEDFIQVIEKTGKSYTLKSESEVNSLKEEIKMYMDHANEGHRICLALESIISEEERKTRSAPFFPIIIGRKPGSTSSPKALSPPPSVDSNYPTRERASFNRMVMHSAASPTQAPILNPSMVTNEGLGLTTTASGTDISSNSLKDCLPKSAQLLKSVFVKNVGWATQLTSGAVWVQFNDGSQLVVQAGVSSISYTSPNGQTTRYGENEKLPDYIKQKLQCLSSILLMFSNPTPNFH

PRKCE = molecular target: T15, PRKCE (Homo sapiens, UniProt Q02156); conditions: 1 μM, duplicate, without preincubation; cited from earlier work
T15 construct: literature Ambit Biosciences
T15 sequence (Q02156 1-737): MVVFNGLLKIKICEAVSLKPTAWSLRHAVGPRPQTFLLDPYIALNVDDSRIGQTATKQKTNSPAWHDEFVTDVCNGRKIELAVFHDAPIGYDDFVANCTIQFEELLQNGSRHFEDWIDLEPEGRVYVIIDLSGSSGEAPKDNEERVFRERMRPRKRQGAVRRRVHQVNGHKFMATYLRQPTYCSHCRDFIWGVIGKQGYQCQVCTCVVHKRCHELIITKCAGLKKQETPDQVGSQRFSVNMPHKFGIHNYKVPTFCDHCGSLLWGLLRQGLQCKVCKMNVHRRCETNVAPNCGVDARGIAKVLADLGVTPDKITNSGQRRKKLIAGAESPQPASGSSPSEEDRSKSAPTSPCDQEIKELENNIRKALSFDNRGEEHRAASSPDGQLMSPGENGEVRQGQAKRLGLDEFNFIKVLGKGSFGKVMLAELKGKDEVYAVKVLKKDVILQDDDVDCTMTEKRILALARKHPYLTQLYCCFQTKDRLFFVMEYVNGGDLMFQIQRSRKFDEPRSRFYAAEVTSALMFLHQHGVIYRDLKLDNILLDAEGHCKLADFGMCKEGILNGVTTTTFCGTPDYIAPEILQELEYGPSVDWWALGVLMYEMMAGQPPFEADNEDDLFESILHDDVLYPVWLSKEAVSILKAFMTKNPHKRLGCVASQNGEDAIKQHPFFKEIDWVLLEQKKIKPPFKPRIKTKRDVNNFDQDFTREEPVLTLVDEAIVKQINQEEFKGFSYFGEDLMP

RAF1 = molecular target: T16, RAF1 (Homo sapiens, UniProt P04049); conditions: 1 μM, duplicate, without preincubation; cited from earlier work
T16 construct: literature Ambit Biosciences

ULK2 = molecular target: T17, ULK2 (Homo sapiens, UniProt Q8IYT8); conditions: 1 μM, duplicate, without preincubation; cited from earlier work
T17 construct: literature Ambit Biosciences

BRAF(V600E) [3] = molecular target: T1, BRAF(V600E); parameters: literature Ambit Biosciences; conditions: 1 μM, duplicate, without preincubation; cited from earlier work

T1 sequence (P15056 whole entry V600E): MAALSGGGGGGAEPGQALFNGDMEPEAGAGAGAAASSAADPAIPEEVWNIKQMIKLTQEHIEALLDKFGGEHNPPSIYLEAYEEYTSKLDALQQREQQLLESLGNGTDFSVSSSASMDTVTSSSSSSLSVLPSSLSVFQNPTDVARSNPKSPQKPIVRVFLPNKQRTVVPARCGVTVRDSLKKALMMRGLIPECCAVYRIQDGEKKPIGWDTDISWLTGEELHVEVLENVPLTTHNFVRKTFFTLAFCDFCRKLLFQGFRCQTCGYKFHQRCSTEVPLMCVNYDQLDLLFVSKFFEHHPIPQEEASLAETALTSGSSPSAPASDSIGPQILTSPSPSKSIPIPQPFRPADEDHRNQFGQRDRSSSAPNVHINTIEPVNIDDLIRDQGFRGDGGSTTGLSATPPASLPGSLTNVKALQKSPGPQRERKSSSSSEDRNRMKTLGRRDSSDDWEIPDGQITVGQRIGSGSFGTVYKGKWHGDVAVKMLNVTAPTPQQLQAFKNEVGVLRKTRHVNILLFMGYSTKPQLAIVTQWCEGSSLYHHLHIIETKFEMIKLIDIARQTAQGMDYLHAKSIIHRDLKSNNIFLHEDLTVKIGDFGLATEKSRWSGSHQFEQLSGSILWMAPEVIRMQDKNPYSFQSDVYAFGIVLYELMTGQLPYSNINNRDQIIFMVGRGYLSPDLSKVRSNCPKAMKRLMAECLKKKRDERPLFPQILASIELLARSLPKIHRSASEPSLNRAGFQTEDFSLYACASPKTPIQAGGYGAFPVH
T16 sequence (P04049 whole entry): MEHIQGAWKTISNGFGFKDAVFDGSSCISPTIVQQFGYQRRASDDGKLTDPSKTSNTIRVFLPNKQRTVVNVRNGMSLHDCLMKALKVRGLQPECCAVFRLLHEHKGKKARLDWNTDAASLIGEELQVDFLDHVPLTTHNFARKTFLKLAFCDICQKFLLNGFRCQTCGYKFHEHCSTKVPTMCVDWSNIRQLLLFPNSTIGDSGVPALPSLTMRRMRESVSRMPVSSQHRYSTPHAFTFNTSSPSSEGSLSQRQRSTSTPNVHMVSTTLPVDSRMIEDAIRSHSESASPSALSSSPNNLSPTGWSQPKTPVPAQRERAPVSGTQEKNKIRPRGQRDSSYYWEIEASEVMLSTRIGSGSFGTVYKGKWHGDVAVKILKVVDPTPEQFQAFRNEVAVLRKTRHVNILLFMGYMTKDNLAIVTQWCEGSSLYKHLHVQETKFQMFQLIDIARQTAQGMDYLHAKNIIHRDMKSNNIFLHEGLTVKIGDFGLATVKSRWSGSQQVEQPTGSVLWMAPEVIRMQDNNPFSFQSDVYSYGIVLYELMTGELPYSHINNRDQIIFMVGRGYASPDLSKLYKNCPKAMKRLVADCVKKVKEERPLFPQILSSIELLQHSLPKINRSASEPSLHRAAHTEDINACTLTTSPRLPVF
T10 sequence (Q16539 whole entry): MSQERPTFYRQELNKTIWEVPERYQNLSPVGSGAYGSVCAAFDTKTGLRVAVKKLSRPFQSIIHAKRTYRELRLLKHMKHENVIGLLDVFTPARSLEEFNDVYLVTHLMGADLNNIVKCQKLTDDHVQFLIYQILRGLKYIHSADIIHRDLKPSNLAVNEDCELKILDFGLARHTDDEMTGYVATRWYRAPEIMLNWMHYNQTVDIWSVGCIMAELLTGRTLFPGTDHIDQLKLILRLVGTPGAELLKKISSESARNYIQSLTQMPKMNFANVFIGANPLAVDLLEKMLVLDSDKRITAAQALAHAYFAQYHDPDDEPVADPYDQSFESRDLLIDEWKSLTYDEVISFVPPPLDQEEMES
T6 sequence (P07333 20-972): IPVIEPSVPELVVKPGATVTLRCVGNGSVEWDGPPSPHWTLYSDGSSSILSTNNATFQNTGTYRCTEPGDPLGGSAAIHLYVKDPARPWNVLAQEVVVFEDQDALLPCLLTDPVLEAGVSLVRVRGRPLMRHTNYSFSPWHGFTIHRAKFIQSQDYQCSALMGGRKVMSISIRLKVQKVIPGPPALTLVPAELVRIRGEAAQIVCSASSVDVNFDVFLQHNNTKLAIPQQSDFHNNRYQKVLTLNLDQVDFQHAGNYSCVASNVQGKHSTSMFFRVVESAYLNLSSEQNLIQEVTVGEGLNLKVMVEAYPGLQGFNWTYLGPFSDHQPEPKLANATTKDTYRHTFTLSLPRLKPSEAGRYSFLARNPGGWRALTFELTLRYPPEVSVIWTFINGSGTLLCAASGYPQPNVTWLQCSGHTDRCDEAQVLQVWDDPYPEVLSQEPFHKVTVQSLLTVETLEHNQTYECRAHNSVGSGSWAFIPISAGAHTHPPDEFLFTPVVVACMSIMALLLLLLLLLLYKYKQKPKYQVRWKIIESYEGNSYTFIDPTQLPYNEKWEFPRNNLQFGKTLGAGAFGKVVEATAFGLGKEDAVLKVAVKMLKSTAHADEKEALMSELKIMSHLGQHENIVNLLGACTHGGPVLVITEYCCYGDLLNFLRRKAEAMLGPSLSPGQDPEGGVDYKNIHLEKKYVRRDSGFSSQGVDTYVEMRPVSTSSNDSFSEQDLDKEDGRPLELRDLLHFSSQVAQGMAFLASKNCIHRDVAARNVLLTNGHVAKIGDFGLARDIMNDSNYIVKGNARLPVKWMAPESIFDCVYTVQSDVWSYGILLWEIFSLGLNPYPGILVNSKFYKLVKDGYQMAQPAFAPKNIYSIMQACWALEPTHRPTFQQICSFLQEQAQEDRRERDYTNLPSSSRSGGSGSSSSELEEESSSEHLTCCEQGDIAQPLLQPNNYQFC
KIT, sequence (P10721 26-976): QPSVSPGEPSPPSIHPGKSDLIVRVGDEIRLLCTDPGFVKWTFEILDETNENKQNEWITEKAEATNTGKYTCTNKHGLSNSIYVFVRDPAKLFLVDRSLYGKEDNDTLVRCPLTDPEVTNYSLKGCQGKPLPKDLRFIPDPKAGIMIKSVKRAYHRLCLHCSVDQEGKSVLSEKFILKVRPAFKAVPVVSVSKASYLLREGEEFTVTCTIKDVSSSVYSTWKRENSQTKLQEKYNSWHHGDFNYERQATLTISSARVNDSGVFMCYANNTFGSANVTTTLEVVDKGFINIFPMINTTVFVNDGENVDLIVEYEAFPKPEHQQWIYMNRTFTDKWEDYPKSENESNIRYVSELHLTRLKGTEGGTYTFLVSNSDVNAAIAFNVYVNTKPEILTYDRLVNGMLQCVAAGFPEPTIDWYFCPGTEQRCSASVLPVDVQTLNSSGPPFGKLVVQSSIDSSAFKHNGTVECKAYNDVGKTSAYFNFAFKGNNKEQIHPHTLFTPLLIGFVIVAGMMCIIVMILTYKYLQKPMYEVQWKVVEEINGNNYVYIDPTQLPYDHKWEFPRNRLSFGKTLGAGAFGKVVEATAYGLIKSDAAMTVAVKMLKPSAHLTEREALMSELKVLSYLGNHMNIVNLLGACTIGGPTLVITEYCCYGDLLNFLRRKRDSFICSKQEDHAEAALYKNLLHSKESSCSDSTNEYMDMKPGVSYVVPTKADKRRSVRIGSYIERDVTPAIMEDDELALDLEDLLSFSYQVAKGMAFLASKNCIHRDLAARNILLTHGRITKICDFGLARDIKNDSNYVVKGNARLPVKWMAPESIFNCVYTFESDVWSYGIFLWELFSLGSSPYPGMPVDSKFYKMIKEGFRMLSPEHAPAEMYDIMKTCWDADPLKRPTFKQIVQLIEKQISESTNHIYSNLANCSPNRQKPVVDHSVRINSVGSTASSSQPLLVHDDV
T5 sequence (P50613 whole entry): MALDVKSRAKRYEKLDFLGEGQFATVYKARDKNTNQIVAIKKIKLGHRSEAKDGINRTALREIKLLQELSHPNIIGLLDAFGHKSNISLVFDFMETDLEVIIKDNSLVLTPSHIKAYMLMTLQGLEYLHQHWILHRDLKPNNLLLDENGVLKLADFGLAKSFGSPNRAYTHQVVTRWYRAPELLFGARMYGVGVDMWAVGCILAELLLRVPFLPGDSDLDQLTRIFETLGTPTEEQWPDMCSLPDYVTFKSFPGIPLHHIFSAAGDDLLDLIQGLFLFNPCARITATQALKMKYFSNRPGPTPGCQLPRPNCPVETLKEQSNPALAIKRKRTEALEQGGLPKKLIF
T2 sequence (P15056 whole entry): as the sequence (P15056 whole entry V600E) above, with E600V counted along it
wild type B-Raf, sequence (P15056 whole entry): as the sequence (P15056 whole entry V600E) above, with E600V counted along it
T4 sequence (Q9BWU1 whole entry): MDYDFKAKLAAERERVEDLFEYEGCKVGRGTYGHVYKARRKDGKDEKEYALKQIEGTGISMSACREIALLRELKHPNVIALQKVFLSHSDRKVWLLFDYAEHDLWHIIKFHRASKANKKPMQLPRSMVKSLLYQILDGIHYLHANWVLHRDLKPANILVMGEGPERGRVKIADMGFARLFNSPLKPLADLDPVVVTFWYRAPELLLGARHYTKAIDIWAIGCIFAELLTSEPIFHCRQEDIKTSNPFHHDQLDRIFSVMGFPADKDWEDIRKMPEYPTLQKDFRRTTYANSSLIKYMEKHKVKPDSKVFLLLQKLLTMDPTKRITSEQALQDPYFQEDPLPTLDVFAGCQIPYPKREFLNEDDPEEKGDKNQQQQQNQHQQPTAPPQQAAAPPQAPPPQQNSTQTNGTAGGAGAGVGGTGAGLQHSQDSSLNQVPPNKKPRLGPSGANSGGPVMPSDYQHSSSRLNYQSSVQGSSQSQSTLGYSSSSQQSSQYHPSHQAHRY
T11 sequence (Q15759 whole entry): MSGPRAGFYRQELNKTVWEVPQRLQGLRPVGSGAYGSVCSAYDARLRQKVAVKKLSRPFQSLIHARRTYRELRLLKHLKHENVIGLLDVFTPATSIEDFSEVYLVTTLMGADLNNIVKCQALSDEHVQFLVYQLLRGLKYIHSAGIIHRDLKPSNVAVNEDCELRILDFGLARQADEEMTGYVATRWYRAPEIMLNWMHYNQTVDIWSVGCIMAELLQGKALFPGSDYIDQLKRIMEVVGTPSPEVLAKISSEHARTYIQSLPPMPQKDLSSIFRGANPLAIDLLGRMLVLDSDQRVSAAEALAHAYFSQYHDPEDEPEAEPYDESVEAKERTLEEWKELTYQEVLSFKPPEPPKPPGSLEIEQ

selectivity in kinase panel (panel of kinases; panel of 220 kinases, 5 μM): extremely selective for p38-α
SMILES: Cc1ccc(NC(=O)c2nc(C(F)(F)F)[nH]c2-c2ccc(F)cc2)cc1NC(=O)c1c[nH]c2ncccc12 [Inhibitor I-11, 1H-7-Azaindole-3-carboxylic acid (5-{[5-(4-fluoro-phenyl)-2-trifluoromethyl-3H-imidazole-4-carbonyl]-amino}-2-methyl-phenyl)-amide]

number of panel kinases at >25% inhibition (panel of kinases; panel of 220 kinases, 5 μM): 72 kinases
number of panel kinases with greater than 50% inhibition (panel of kinases; panel of 220 kinases, 5 μM): 45 kinases
SMILES: O=C(Nc1ccc(Oc2ccnc3[nH]c(=O)[nH]c23)cc1)c1nc(C(F)(F)F)[nH]c1-c1ccc(F)cc1 [Inhibitor I-12, 4-(4-{[5-(4-Fluoro-phenyl)-2-trifluoromethyl-3H-imidazole-4-carbonyl]-amino}-phenoxy)-pyridine-2,3-benzimidazolone carboxylic acid methylamide]

more potent against the mutant verses wild type B-Raf (BRAF(V600E) [1]; B-Raf(V600E) vs wild type B-Raf): approximately 80 fold
increase in potency vs KIN-0035 (BRAF(V600E) [1]; LanthaScreen assay, IC50 ratio): 10 fold
IC50 (BRAF(V600E) [1]; LanthaScreen assay, side by side comparison): 6.6 nM
IC50 (wild type B-Raf): ~500 nM
SMILES: Cc1ccc(NC(=O)c2nc(S(C)(=O)=O)[nH]c2-c2ccc(F)cc2)cc1Nc1ccc2ncn(C)c(=O)c2c1 [Inhibitor I-13, 3-(3-methyl-4-oxo-3,4-dihydroquinazolin-6-ylamino)-4-methyl-analine, 5-(4-Fluorophenyl)-2-(methylsulfonyl)-1H-imidazole-4-carboxamide]
change of IC50 value with preincubation (BRAF(V600E) [1]; several hour preincubation period): appeared to decrease over a several hour preincubation period
real time kinetic data with B-Raf(V600E) (BRAF(V600E) [2]): consistent with either extremely tight binding or irreversible inhibition
real time kinetic data with B-Raf(V600E) (BRAF(V600E) [2]; listed as SFE-0013): consistent with extremely tight or irreversible inhibition

More lines, now with the values behind:

SMILES: O=C(Nc1ccccn1)c1cc(NC(=O)c2nc(C(F)(F)F)[nH]c2-c2ccc(F)cc2)ccc1Cl [Inhibitor I-1, 5-(4-Fluoro-phenyl)-2-trifluoromethyl-3H-imidazole-4-carboxylic acid [4-chloro-3-(pyridin-2-ylcarbamoyl)-phenyl]-amide]
activity against any of the kinases tested (panel of kinases): no significant activity

SMILES: O=C(Nc1ccncc1)c1cc(NC(=O)c2nc(C(F)(F)F)[nH]c2-c2ccc(F)cc2)ccc1Cl [Inhibitor I-2, 5-(4-Fluoro-phenyl)-2-trifluoromethyl-3H-imidazole-4-carboxylic acid [4-chloro-3-(pyridin-4-ylcarbamoyl)-phenyl]-amide]
activity against any of the kinases tested (panel of kinases): no significant activity

SMILES: Cc1ccc(NC(=O)c2[nH]c(C(F)(F)F)nc2-c2ccc(F)c(F)c2)cc1Nc1ccc2ncn(C)c(=O)c2c1 [KIN-057]
inhibition of BRAF (BRAF): XXX (XXX > 75% @ 1 μM)
inhibition of BTK (BTK): X (X > 25% @ 1 μM)
inhibition of CDK11 (CDK11): XX (XX > 50% @ 1 μM)
inhibition of CDK7 (CDK7): X (X > 25% @ 1 μM)
inhibition of CSF1R (CSF1R): X (X > 25% @ 1 μM)
inhibition of DCAMKL1 (DCAMKL1): X (X > 25% @ 1 μM)
inhibition of IKK-beta (IKK-beta): X (X > 25% @ 1 μM)
inhibition of JAK2 (catalytic) (JAK2 (catalytic)): X (X > 25% @ 1 μM)
inhibition of KIT (KIT): XXX (XXX > 75% @ 1 μM)
inhibition of p38-alpha (p38-alpha): XXX (XXX > 75% @ 1 μM)
inhibition of p38-beta (p38-beta): X (X > 25% @ 1 μM)
inhibition of PDGFRA (PDGFRA): X (X > 25% @ 1 μM)
inhibition of PDGFRB (PDGFRB): XXX (XXX > 75% @ 1 μM)
inhibition of PLK4 (PLK4): X (X > 25% @ 1 μM)
inhibition of PRKCE (PRKCE): X (X > 25% @ 1 μM)
inhibition of RAF1 (RAF1): XXXX (XXXX > 90% @ 1 μM)
inhibition of ULK2 (ULK2): X (X > 25% @ 1 μM)
inhibition of BRAF(V600E) (BRAF(V600E) [3]): XXX (XXX > 75% @ 1 μM)
